Tested on: chronic constriction injury (CCI) of the sciatic nerve, rats
Assay: Cold allodynia (acetone application) in chronic constriction injury model
Assay type: in vivo, rat
Conditions: neuropathic pain model as disclosed in Example 2
Method: Unilateral sciatic nerve injury was produced under deep anesthesia with i.p injection of sodium pentobarbital (Mebumal, 60 mg/kg), as described by Bennett and Xie (Pain, 33, 87-107(1988)). The common sciatic nerve was exposed and freed for about 10 mm at mid-thigh level. Four ligatures (Ethicon, 4.0 plain gut) were tied loosely around the nerve with about 1-mm spacing creating a chronic constriction injury (CCl), and the incision was closed.
Brisk foot withdrawal in response to acetone application was measured based on the method described by Choi et al. The acetone bubble was gently brought in touch with the plantar surface around the center, and the acetone quickly spread over the central part of the plantar surface of the foot. Applications were made five times (once every 5 min) to each paw. The score for each application was recorded as follows: foot withdrawal was scored as positive (1) and lack of withdrawal as negative (O). The total score (0 to 5) was taken as index for cold sensitivity of the foot […]. This approximates pain from a non-noxious stimulus, i.e. allodynia.
Cold allodynia response was measured 15, 30, 45, 60, 90 and 120 minutes after i.p. administration of ganaxolone (at 1 mg/kg, 3 mg/kg or 10 mg/kg) as well as prior to administration of the neurosteroid and prior to infliction of the neural injury. Table 1 provides the resulting measurement of cold allodynia response in groups of six rats per dosage level. The abbreviation “s.e.m.” means standard error mean.

C[C@]12CC[C@@H](O)C[C@@H]1CC[C@H]1[C@@H]3CC[C@H](C(=O)CO)[C@@]3(C)CC(=O)[C@@H]12 [Alphadolone, reference compound]
Activity in the neuropathic pain model: inactive

Source: patent publication US20060009432A1, “Use of neurosteroids to treat neuropathic pain” (priority 2004, published 2006)
